Source: article PMC12148371 (iScience, 2025)
Like-named read-outs stand apart in the source and are kept apart here.

Assays:
pseudotyped EBOV = assay: microbe, parasite or virus in culture; type: cell-based, Zaire ebolavirus; details: for IC50: read-out: EBOV (IC50)
pseudotyped BDBV = assay: microbe, parasite or virus in culture; type: cell-based, Bundibugyo ebolavirus; details: Bundibugyo virus, TZM-bl, read-out: BDBV (IC50)
infectious EBOV = assay: microbe, parasite or virus in culture; type: cell-based, Ebola Zaire virus; details: Zaire ebolavirus, read-out: Infectious EBOV (IC50)
[1] = system: NPC1 binding to Ebola GP-RBD; parameters: species or system Ebola virus
in vitro = details: human
[2] = biological target: GP-RBD-Fc (without the glycan cap and MLD) (Bundibugyo ebolavirus (key resources table); called EBOV in the results); assay: BLI; pH 6.1
[3] = biological target: GP-RBD-Fc (without the glycan cap and MLD) (Bundibugyo ebolavirus (key resources table); called EBOV in the results); assay: BLI; pH 7.4
pseudotyped VSV = type: cell-based, vesicular stomatitis virus
pseudotyped A-MLV = type: cell-based, amphotropic murine leukemia virus

| Compound | inhibition potency against EBOV, in words (pseudotyped EBOV) | IC50 (pseudotyped EBOV; Zaire ebolavirus, TZM-bl) [µM] | IC50 (pseudotyped BDBV) [µM] | IC50 (infectious EBOV) [µM] | NPC1 binding remaining (A488+ cells) in presence of competitor [1] [%] | CC50 (in vitro) [µM] | IC50 (pseudotyped EBOV) [µM] | Kd [2] [µM] | Kd [3] [µM] | neutralization of pseudotyped VSV (pseudotyped VSV) | neutralization of pseudotyped A-MLV (pseudotyped A-MLV) |
| --- | --- | --- | --- | --- | --- | --- | --- | --- | --- | --- | --- |
| CNCc1ccc2c(c1)C[C@H](CNC(=N)N)[C@H]2NC(=O)C(=O)Nc1ccc(Cl)c(F)c1 [BNM-III-170] | largely reduced | > 30 |  |  |  |  |  |  |  |  |  |
| CC1(C)CC(NC(=O)C(=O)Nc2ccc(C(C)(C)C)c(F)c2)CC(C)(C)N1 [DY-III-228] |  | 1.98 ± 0.5 | 2.25 ± 0.2 | 0.56 | 30.90 | 20.6 ± 2.6 |  |  |  |  |  |
| CC1(C)CC(NC(=O)C(=O)Nc2cc(F)c(Cl)c(F)c2)CC(C)(C)N1 [DY-III-227] |  | 12.1 | 12.1 ± 0.7 |  |  | 68.3 ± 4.3 | 12.5 ± 1.5 |  |  |  |  |
| CC1(C)CC(NC(=O)C(=O)Nc2ccc(Cl)cc2)CC(C)(C)N1 [NBD-556] |  | 18.2 ± 1 | 16.8 ± 2.1 | 18.8 | 28.36 | 67.7 ± 7.3 |  |  |  |  |  |
| human soluble CD4-183 (sCD4-183) two-domain protein (domain or fragment) |  |  |  |  |  |  |  | 0.36 | 52 |  |  |
| CC1(C)CC(NC(=O)C(=O)Nc2ccc(C(F)(F)F)c(F)c2)CC(C)(C)N1 [DY-III-226] |  | 11.1 | 10.6 ± 0.5 |  |  | 48.4 ± 5.4 | 11.2 ± 0.8 |  |  |  |  |
| CC1(C)CC(NC(=O)C(=O)Nc2ccc(C(C)(C)C)cc2)CC(C)(C)N1 [Compd N9] |  | 9.51 ± 1.6 | 17.6 ± 2.7 | 9.46 |  | > 100 |  |  |  |  |  |
| CC1(C)CC(NC(=O)C(=O)Nc2ccc(Br)cc2)CC(C)(C)N1 [NBD-557] |  | 19.8 ± 1.7 | 10.6 ± 1.8 |  |  |  |  |  |  |  |  |
| CC1(C)CC(NC(=O)C(=O)Nc2ccc(Cl)c(F)c2)CC(C)(C)N1 [JRC-II-191] |  | 9.52 ± 1.4 | 9.99 ± 1.1 | 5.25 | 24.29 | 43.2 ± 6 |  |  |  | did not neutralize | did not neutralize |
